# The source made the active and inactive calls. No cut-off for these calls is given here.
# Experiments:
# [1] = biological target: Sigma non-opioid intracellular receptor 1 (Cavia porcellus) (UniProt Q60492); assay: Displacement of [3H]-(+)-pentazocine from sigma1 receptor in guinea pig brain membrane at 1 uM incubated for 120 mins by solid scintillation counting method; format: cell membranes; conditions: Cell membrane
# [2] = biological target: T1, Sigma intracellular receptor 2 (Rattus norvegicus) (UniProt Q5U3Y7); assay: Displacement of [3H]-di-o-tolylguanidine from Sigma 2 receptor in rat liver membrane at 1 uM incubated for 120 mins by solid scintillation counting method; format: cell membranes; conditions: Cell membrane
# T1 sequence (whole entry): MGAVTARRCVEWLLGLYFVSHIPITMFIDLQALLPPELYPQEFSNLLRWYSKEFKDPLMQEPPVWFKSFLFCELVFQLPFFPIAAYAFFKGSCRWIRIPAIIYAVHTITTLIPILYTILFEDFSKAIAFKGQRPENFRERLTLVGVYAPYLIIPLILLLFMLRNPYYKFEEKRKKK
# Sus scrofa = species on record: Sus scrofa; assay: Displacement of [3H]-(+)-MK-801 from PCP binding site of NMDA receptor in pig brain cortex membranes after 120 mins by solid scintillation counting method; conditions: Cell membrane
# [3] = biological target: T2, Sigma non-opioid intracellular receptor 1 (Cavia porcellus, UniProt Q60492); assay: Displacement of [3H]-pentazocine from sigma1 receptor in guinea pig brain membrane incubated for 150 mins by scintillation counting method; format: cell membranes, Cell membrane
# T2 sequence (Q60492 whole entry): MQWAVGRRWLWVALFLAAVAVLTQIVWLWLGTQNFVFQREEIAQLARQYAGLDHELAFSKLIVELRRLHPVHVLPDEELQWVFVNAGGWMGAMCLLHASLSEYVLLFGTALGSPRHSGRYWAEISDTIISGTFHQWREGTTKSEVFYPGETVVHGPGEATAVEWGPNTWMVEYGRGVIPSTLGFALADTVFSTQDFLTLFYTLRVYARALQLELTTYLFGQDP
# [4] = Displacement of [3H]-di-o-tolylguanidine from Sigma 2 receptor in guinea pig brain membrane incubated for 120 mins by scintillation counting method; format: cell membranes, Cavia porcellus, Cell membrane
# [5] = biological target: T2, Sigma non-opioid intracellular receptor 1; assay: Displacement of [3H]-(+)-pentazocine from sigma1 receptor in guinea pig brain membrane incubated for 120 mins by solid scintillation counting method; format: cell membranes, Cell membrane
# [6] = biological target: T3, Sigma intracellular receptor 2 (Rattus norvegicus, UniProt Q5U3Y7); assay: Displacement of [3H]-di-o-tolylguanidine from Sigma 2 receptor in rat liver membrane incubated for 120 mins by solid scintillation counting method; format: cell membranes, Cell membrane
# T3 sequence (Q5U3Y7 whole entry): T1 sequence (whole entry)
# [7] = Dissociation constant, pKa of the compound; format: physicochemical
# Chain of Sigma non-opioid intracellular receptor 1 (Cavia porcellus) (Q60492 whole entry): as above
Compound,inhibition [1] [%],inhibition [2] [%],Activity (Sus scrofa),other results
NC1CC1(F)c1ccc([N+](=O)[O-])cc1 (trans isomer),13,0,inactive,
COC(=O)C1(c2ccccc2)CC1CNC12CC3CC(CC(C3)C1)C2 (racemic; cis),,,,Ki [3]: 3 nM; Ki [4]: 23 nM
COC(=O)C1(c2ccccc2)CC1CNC12CC3CC(CC(C3)C1)C2 (racemic; trans),,,,Ki [3]: 226 nM; Ki [4]: 135 nM
NC1CC1(F)c1ccc(C(F)(F)F)cc1 (stereo in doubt; 20b) [listing 1 of 2 here],,,inactive,
NC1CC1(F)c1cccc([N+](=O)[O-])c1 (trans isomer),16,18,inactive,
NC1(c2ccccc2)CC1(F)c1ccccc1 (stereo in doubt; 24b) [listing 1 of 2 here],,,,Ki [5]: 527 nM; Ki [6]: 7100 nM
NC1CC1(F)c1ccc(Cl)cc1 (cis isomer),,,inactive,Ki [5]: 1500 nM; Ki [6]: 2000 nM
NC1CC1(F)c1ccc(F)cc1 (trans isomer) [listing 1 of 2 here],27,,inactive,
COc1cccc(C2(F)CC2N)c1.Cl (cis isomer),,,,pKa [7]: 6.89
NC1CC1(F)c1ccc(S(F)(F)(F)(F)F)cc1 (trans isomer) [listing 1 of 2 here],,,,Ki [5]: 660 nM
NC1CC1(F)c1ccc(S(F)(F)(F)(F)F)cc1 (trans isomer) [listing 2 of 2 here],,,inactive,
COc1ccc(C2(F)CC2N)cc1OC (stereo not given),24,,inactive,Ki [6]: 3100 nM
NC1CC1(F)c1cccc([N+](=O)[O-])c1 (cis isomer),13,49,inactive,
NC1(c2ccccc2)CC1(F)c1ccccc1 (trans isomer) [listing 2 of 2 here],,,,Ki [5]: 399 nM; Ki [6]: 2300 nM
NC1CC1(F)c1ccc(S(F)(F)(F)(F)F)cc1 (cis isomer),17,,inactive,
Cc1ccc(C2(F)CC2N)cc1 (cis isomer),25,,inactive,Ki [6]: 3100 nM

Compound,inhibition [1] [%],inhibition [2] [%],Activity (Sus scrofa),other results
NC1CC1(F)c1ccc(F)cc1 (stereo in doubt; 17b) [listing 1 of 2 here],,,inactive,
NC1CC1(F)c1ccc(F)cc1 (trans isomer) [listing 2 of 2 here],,,,Ki [6]: 1200 nM
COc1ccc(C2(F)CC2N)cc1 (stereo in doubt; 19b) [listing 1 of 2 here],,33,inactive,
N[C@@H]1C[C@H]1c1ccccc1.N[C@H]1C[C@@H]1c1ccccc1 (racemic) [TRANYLCYPROMINE],,,,Ki [5]: 1800 nM; Ki [6]: 6200 nM
NC1CC1(F)c1cccc(F)c1 (stereo in doubt; 27b),0,16,inactive,
COc1cccc(C2(F)CC2N)c1 (trans isomer) [listing 1 of 2 here],,,,pKa ([7]; read-out: pKa): 6.63
NC1CC1(F)c1ccc(F)cc1 (stereo in doubt; 17b) [listing 2 of 2 here],,,,Ki [5]: 428 nM; Ki [6]: 2400 nM
NC1CC1(F)c1cccc(F)c1 (trans isomer),0,31,inactive,
NC1CC1(F)c1ccc([N+](=O)[O-])cc1 (stereo in doubt; 25b),1,53,inactive,
COc1ccc(C2(F)CC2N)cc1 (trans isomer) [listing 1 of 2 here],,,,Ki [5]: 4.8 nM; pKa ([7]; read-out: pKa): 7.5
COc1ccc(C2(F)CC2N)cc1 (stereo in doubt; 19b) [listing 2 of 2 here],,,,Ki [5]: 366 nM
NC1CC1(F)c1ccc(C(F)(F)F)cc1 (trans isomer) [listing 1 of 2 here],,,inactive,
NCC1CC1(F)c1ccccc1 (stereo not given),,24,inactive,Ki [5]: 429 nM
NC1CC1(F)c1ccc(C(F)(F)F)cc1 (stereo in doubt; 20b) [listing 2 of 2 here],,,,Ki [5]: 13 nM; Ki [6]: 95 nM; pKa ([7]; read-out: pKa): 7
NC1CC1(F)c1ccc(C(F)(F)F)cc1 (trans isomer) [listing 2 of 2 here],,,,Ki [5]: 1900 nM; Ki [6]: 911 nM
COc1ccc(C2(F)CC2N)cc1 (trans isomer) [listing 2 of 2 here],,32,inactive,

# Further lines, with some results ahead:
inhibition [1] [%],inhibition [2] [%],Activity (Sus scrofa),Compound,other results
0,0,inactive,FC1(c2ccccc2)CC1NCc1ccccc1 (stereo not given),
0,0,inactive,Fc1cccc(C2(F)CC2NCc2ccccc2)c1 (trans isomer),
24,5,inactive,NCCC1CC1(F)c1ccccc1 (stereo not given),
,,inactive,NC1(c2ccccc2)CC1(F)c1ccccc1 (trans isomer) [listing 1 of 2 here],
30,23,inactive,NC1CC1(F)c1ccccc1 (cis isomer),
0,0,inactive,CNC1CC1(F)c1ccccc1 (stereo in doubt; 11a),
0,19,inactive,CNC1CC1(F)c1ccccc1 (racemic),
,,inactive,NC1(c2ccccc2)CC1(F)c1ccccc1 (stereo in doubt; 24b) [listing 2 of 2 here],
14,,inactive,COc1cccc(C2(F)CC2N)c1 (cis isomer),
25,,inactive,COc1cccc(C2(F)CC2N)c1 (trans isomer) [listing 2 of 2 here],
